Results as given in patent US20170368082A1, “FORMULATIONS OF BRINCIDOFOVIR” (priority 2016, published 2017).
≈ marks a conversion by molar mass, not a printed value. Marks after values point to notes of the source that are not given here.

Experiments:
[1] = 28-day intravenous infusion toxicity study with 14-day recovery; type: in vivo, Sprague-Dawley CD rats; conditions: for Testicular germ cell depletion, severity: terminal sacrifice
Protocol: Sprague-Dawley CD® rats (15/sex/group) were administered 0 (2× Sodium Phosphate Buffer Solution), 1, 4 or 15 mg/kg/dose brincidofovir twice per week via 2-hour intravenous infusion on a total of 9 occasions over 29 days. The dose rate was 10 mL/kg/hr for all dose groups. At the end of the treatment phase, up to 10 animals/sex/group were euthanized and necropsied. The remaining animals (up to 5 animals/sex/group) were held for a 14-day recovery phase in order to determine progression or reversibility of any brincidofovir-related effects. Satellite animals (up to 3/sex/group) were similarly dosed and serial blood samples were collected from each animal on Days 1 and 29 for toxicokinetic analysis of brincidofovir and the brincidofovir metabolite (Cidofovir, CDV). Parameters evaluated during the study were: viability, clinical observations, ophthalmology, body weights, food consumption, clinical pathology (termination of dosing and end of recovery), organ weights, macroscopic observations and microscopic pathology.
The test/control item was administered via 2 hours intravenous infusion twice weekly for a total of 9 individual doses over 29 days. Test/control item administration continued through the day prior to terminal necropsy. Recovery animals were held for a 14 day observation period after the last dose.
Animals in extremely poor health or in a possible moribund condition were identified for further monitoring and possible euthanasia.
Observations were made immediately and 2 hours after the completion of dosing for any signs of poor health or toxic or pharmacologic effects (e.g., abnormalities in general condition, appearance, activity, behavior, respiration, etc.).
Blood obtained via the orbital sinus (retrobulbar venous plexus) under light isoflurane anesthesia was used to analyze hematology, coagulation and clinical chemistry parameters for up to 10 toxicity animals/sex/group at the termination of dosing and up to 5 recovery animals/sex/group at the end of recovery. Animals were fasted overnight prior to each blood collection interval.
Necropsy was performed on up to 10 toxicity study animals/sex/group after animals had been treated for 29 days and on up to 5 toxicity study animals/sex/group after a 14 day treatment-free recovery period. Animals were fasted overnight prior to necropsy. Necropsy schedules were established to ensure that examination of animals of both sexes from each group were performed at similar times of the day throughout the necropsy periods.
Complete macroscopic examinations were performed on all animals. The macroscopic examination included examination of the external surface and all orifices; the external surfaces of the brain and spinal cord; the organs and tissues of the cranial, thoracic, abdominal and pelvic cavities and neck; and the remainder of the carcass for the presence of macroscopic morphologic abnormalities.
The tissues listed below were obtained from all animals and preserved. In addition, slides of the indicated tissues were prepared and examined microscopically. Any abnormalities not noted during macroscopic examinations which were seen during histology processing were recorded.
After fixation, the tissues and organs from all animals were routinely processed, embedded in paraffin, cut at a microtome setting of 4-7 microns, mounted on glass slides, stained with hematoxylin and eosin and examined by light microscopy. The bones were decalcified in Decalcifier II™.

[2] = Brincidofovir equilibrium solubility in formulation vehicles; type: physicochemical
Protocol: The recovery of brincidofovir in the sample supernatant was determined at different time points to establish when the solubility equilibrium was reached. Two samples of vehicle #57, were saturated with brincidofovir. […] Consequently, the pH had to be brought up close to the target pH before more brincidofovir was added.

[3] = females (2F), 1 mg/kg/dose, 29 day period, 11 tissues examined
[4] = females (3F), 4 mg/kg/dose, 29 day period, 10 tissues examined
[5] = females (4F), 15 mg/kg/dose, 29 day period, 10 tissues examined
[6] = females (4F), 15 mg/kg/dose, following 14-day recovery period, 5 tissues examined
[7] = males (2M), 1 mg/kg/dose, 29 day period, 10 tissues examined
[8] = males (2M), 1 mg/kg/dose, following 14-day recovery period, 5 tissues examined
[9] = males (3M), 4 mg/kg/dose twice weekly, 29 day period, statistically significant
[10] = males (3M), 4 mg/kg/dose, 29 day period, 10 tissues examined
[11] = males (3M), 4 mg/kg/dose, following 14-day recovery period, 5 tissues examined
[12] = males (3M), 4 mg/kg/dose, following 14-day recovery period, statistically significant
[13] = males (4M), 15 mg/kg/dose twice weekly, 29 day period, statistically significant
[14] = males (4M), 15 mg/kg/dose, 29 day period, 10 tissues examined
[15] = males (4M), 15 mg/kg/dose, following 14-day recovery period, 5 tissues examined
[16] = males (4M), 15 mg/kg/dose, following 14-day recovery period, statistically significant

CCCCCCCCCCCCCCCCOCCCOP(=O)(O)CO[C@H](CO)Cn1ccc(N)nc1=O [Brincidofovir]
mortality ([1]; 1, 4 or 15 mg/kg/dose): no brincidofovir-related mortalities
Clinical observations, dosing phase ([1]; 4 and 15 mg/kg/dose, both sexes): intermittent clinical signs
No-observed-adverse-effect level (NOAEL) ([1]; females): 4 mg/kg/dose
Decrease in food consumption vs concurrent controls (to) ([1]; females 15 mg/kg/dose, Week 3): −9.8%
Intestinal tract findings: Total Animals Represented [1, 3]: 0
Skin findings: Total Animals Represented [1, 3]: 0
Bone marrow findings: Total Animals Represented ([1]; females (2F), 1 mg/kg/dose, following 14-day recovery period, 4 tissues examined): 0
Intestinal tract findings: Total Animals Represented [1, 4]: 9
Skin findings: Total Animals Represented [1, 4]: 0
Small intestine: Necrosis, Epithelium, Crypts, Minimal (incidence) [1, 4]: 9
Bone marrow findings: Total Animals Represented ([1]; females (3F), 4 mg/kg/dose, following 14-day recovery period, 5 tissues examined): 0
Intestinal tract findings: Total Animals Represented [1, 5]: 9
Large intestine: Necrosis, Epithelium, glands, Minimal (incidence) [1, 5]: 4
Skin findings: Total Animals Represented [1, 5]: 10
Skin: Atrophy, Sebaceous Glands, Marked (incidence) [1, 5]: 2
Skin: Atrophy, Sebaceous Glands, Moderate (incidence) [1, 5]: 3
Skin: Atrophy, Sebaceous Glands, Slight (incidence) [1, 5]: 5
Small intestine: Hyperplasia, Epithelium, Crypts, Minimal (incidence) [1, 5]: 5
Small intestine: Necrosis, Epithelium, Crypts, Minimal (incidence) [1, 5]: 3
Small intestine: Necrosis, Epithelium, Crypts, Moderate (incidence) [1, 5]: 1
Small intestine: Necrosis, Epithelium, Crypts, Slight (incidence) [1, 5]: 5
Bone marrow findings: Total Animals Represented [1, 6]: 2
Bone marrow: Cellularity, Decreased, Minimal (incidence) [1, 6]: 2
Incidence of bone marrow decreased cellularity after recovery ([1]; females, 15 mg/kg/dose): 2/5
Intestinal tract findings: Total Animals Represented [1, 7]: 0
Male reproductive tract findings: Total Animals Represented [1, 7]: 0
Skin findings: Total Animals Represented [1, 7]: 0
Bone marrow findings: Total Animals Represented [1, 8]: 0
Male reproductive tract findings: Total Animals Represented [1, 8]: 0
Testes weight vs. body weight, % difference relative to controls ([1]; males (3M), 4 mg/kg/dose twice weekly, 29 day period): −3%
Testes absolute weight, % difference relative to controls [1, 9]: −9^a %
Testes weight vs. brain weight, % difference relative to controls [1, 9]: −9^a %
Intestinal tract findings: Total Animals Represented [1, 10]: 9
Male reproductive tract findings: Total Animals Represented [1, 10]: 10
Seminal Vesicles: Apoptosis, Epithelial, Minimal (incidence) [1, 10]: 4
Skin findings: Total Animals Represented [1, 10]: 0
Small intestine: Hyperplasia, Epithelium, Crypts, Minimal (incidence) [1, 10]: 5
Small intestine: Necrosis, Epithelium, Crypts, Minimal (incidence) [1, 10]: 8
Small intestine: Necrosis, Epithelium, Crypts, Slight (incidence) [1, 10]: 1
Testes: Depletion, Germ Cell, Minimal (incidence) [1, 10]: 6
Testes: Depletion, Germ Cell, Slight (incidence) [1, 10]: 3
Bone marrow findings: Total Animals Represented [1, 11]: 0
Male reproductive tract findings: Total Animals Represented [1, 11]: 5
Testes: Depletion, Germ Cell, Minimal (incidence) [1, 11]: 1
Testes: Depletion, Germ Cell, Slight (incidence) [1, 11]: 4
Testes absolute weight, % difference relative to controls [1, 12]: −21^a %
Testes weight vs. body weight, % difference relative to controls [1, 12]: −26^a %
Testes weight vs. brain weight, % difference relative to controls [1, 12]: −18^a %
Epididymides weight vs. body weight, % difference relative to controls ([1]; males (4M), 15 mg/kg/dose twice weekly, 29 day period): −6%
Epididymides absolute weight, % difference relative to controls [1, 13]: −14^a %
Epididymides weight vs. brain weight, % difference relative to controls [1, 13]: −13^a %
Testes absolute weight, % difference relative to controls [1, 13]: −24^a %
Testes weight vs. body weight, % difference relative to controls [1, 13]: −16^a %
Testes weight vs. brain weight, % difference relative to controls [1, 13]: −22^a %
Epididymides: Cell Debris, Luminal, Minimal (incidence) [1, 14]: 9
Intestinal tract findings: Total Animals Represented [1, 14]: 10
Large intestine: Necrosis, Epithelium, glands, Minimal (incidence) [1, 14]: 9
Male reproductive tract findings: Total Animals Represented [1, 14]: 10
Seminal Vesicles: Apoptosis, Epithelial, Minimal (incidence) [1, 14]: 8
Seminal Vesicles: Mitotic Figures, Epithelial, Minimal (incidence) [1, 14]: 4
Skin findings: Total Animals Represented [1, 14]: 10
Skin: Atrophy, Sebaceous Glands, Marked (incidence) [1, 14]: 4
Skin: Atrophy, Sebaceous Glands, Moderate (incidence) [1, 14]: 3
Skin: Atrophy, Sebaceous Glands, Slight (incidence) [1, 14]: 3
Small intestine: Hyperplasia, Epithelium, Crypts, Minimal (incidence) [1, 14]: 2
Small intestine: Necrosis, Epithelium, Crypts, Minimal (incidence) [1, 14]: 2
Small intestine: Necrosis, Epithelium, Crypts, Slight (incidence) [1, 14]: 8
Testes: Depletion, Germ Cell, Moderate (incidence) [1, 14]: 5
Testes: Depletion, Germ Cell, Slight (incidence) [1, 14]: 5
Bone marrow findings: Total Animals Represented [1, 15]: 3
Bone marrow: Cellularity, Decreased, Slight (incidence) [1, 15]: 3
Epididymides: Cell Debris, Luminal, Minimal (incidence) [1, 15]: 5
Epididymides: Sperm, Reduced, Luminal, Marked (incidence) [1, 15]: 4
Epididymides: Sperm, Reduced, Luminal, Severe (incidence) [1, 15]: 1
Male reproductive tract findings: Total Animals Represented [1, 15]: 5
Testes: Depletion, Germ Cell, Marked (incidence) [1, 15]: 4
Testes: Depletion, Germ Cell, Moderate (incidence) [1, 15]: 1
Testes absolute weight, % difference relative to controls [1, 16]: −42^a %
Testes weight vs. body weight, % difference relative to controls [1, 16]: −40^a %
Testes weight vs. brain weight, % difference relative to controls [1, 16]: −41^a %
Sebaceous gland atrophy, severity ([1]; males and females 15 mg/kg/dose): slight to marked
Single cell necrosis of crypt epithelium in small intestine, severity ([1]; males and females ≧4 mg/kg/dose): minimal to moderate
Decrease in food consumption vs concurrent controls (to) ([1]; males ≧1 mg/kg/dose, Week 4): −16%
Testicular germ cell depletion, severity ([1]; males, 4 mg/kg/dose): minimal to slight
Incidence of bone marrow decreased cellularity after recovery ([1]; males, 15 mg/kg/dose): 3/5
Testicular germ cell depletion, severity ([1]; males, 15 mg/kg/dose): slight to moderate
No-observed-adverse-effect level (NOAEL) ([1]; males, twice weekly 2-h IV infusion): 1 mg/kg/dose
Diarrhea ([1]; rat, in vivo): none of the animals in the present study experienced diarrhea
Effects on ophthalmology, body weights, hematology, coagulation, clinical chemistry, urinalysis ([1]; rat, in vivo): no brincidofovir-related effects
Transaminase elevations ([1]; rat, in vivo): No transaminase elevations were observed
solubility thermodynamic ([2]; pH 6.9, thermodynamic from solid): ~25 mg/mL (≈ 44.5 mM)
solubility thermodynamic ([2]; pH 8, thermodynamic from solid): > 270 mg/mL
